Data set [1] is described as follows: Biological activity expressed as the Log potency ratio (PR) of the compound relative to a standard compound 63. Particulars: octanol/water. In kind it is ADME.
A further data set deals with Monkey. Nature of the data set: In vitro inhibition of anti-IgE induced histamine release from bronchoalveolar mast cells of monkey infected with Ascaris suum. In kind it is functional, Cercopithecidae, Lung.
Data set [2] can be described thus: Dissociation constant (eq 2). In kind it is physicochemical. The note with it: read-out: pK3.
Data set [3] in a line: log PR value (eq 2). The note with it: octanol/water. In kind it is ADME.
Data set [4] can be described thus: log PR value using spectrophotometric method. The note with it: octanol/water. The class given is ADME.
A short description of data set [5]: Dissociation constant using spectrophotometric method. The class given is physicochemical.
The nature of data set [6]: Dissociation constant (pKa2) using partition method. Particulars: read-out: pKa2. In kind it is physicochemical.
Data set [7] is described as follows: Dissociation constant (pKa1) using partition method. The class given is physicochemical. Particulars: read-out: pKa1.

For `CCCc1c2nc(C(=O)[O-])cc(C3OCCCO3)c2cc2c(=O)cc(C(=O)[O-])oc12.[Na+].[Na+]`, the “Log PR” value in data set [1] is -0.75. For the same compound, the Potency ratio with Monkey amounted to 0.179.
For `CCCc1c2nc(C(=O)[O-])cc(C(F)(F)C(F)(F)F)c2cc2c(=O)cc(C(=O)[O-])oc12.[Na+].[Na+]`, in that order: 0.45 and 2.83.
On the same counts, the results for `CCCc1c2nc(C(=O)[O-])cc(O)c2cc2c(=O)cc(C(=O)[O-])oc12.[Na+].[Na+]` are 0.37 and 2.366.
On the same counts, the results for `CCCc1c2nc(C(=O)[O-])cc(S(=O)Oc3ccccc3)c2cc2c(=O)cc(C(=O)[O-])oc12.[Na+].[Na+]` (stereo not drawn) are -0.27 and 0.536.
With `CCCc1c2nc(C(=O)[O-])cc(C(F)F)c2cc2c(=O)cc(C(=O)[O-])oc12.[Na+].[Na+]`, in data set [1], the “Log PR” value was -0.23. Moreover, in the data set with Monkey, the Potency ratio turned out to be 0.586.
On the same counts, the results for `CCCc1c2nc(C(=O)[O-])cc(C=O)c2cc2c(=O)cc(C(=O)[O-])oc12.[Na+].[Na+]` are -0.63 and 0.237.
On the same counts, the results for `CCCc1c2nc(C(=O)[O-])cc(NC(=O)Nc3ccccc3)c2cc2c(=O)cc(C(=O)[O-])oc12.[Na+].[Na+]` are -0.05 and 0.895.
With `CCCc1c2nc(C(=O)[O-])cc(NC(C)=O)c2cc2c(=O)cc(C(=O)[O-])oc12.[Na+].[Na+]`, the “Log PR” value in data set [1] is -1.19. Further, in the data set with Monkey, the Potency ratio is given as 0.065.
For the compound `CCCc1c2nc(C(=O)[O-])ccc2cc2c(=O)cc(C(=O)[O-])oc12.[Na+].[Na+]`, the “Log PR” value in data set [1] is -1. Further, the Potency ratio in the data set on Monkey is on record as 0.1.
On the same counts, the results for `CCCc1c2nc(C(=O)[O-])cc(C(F)(F)C(F)(F)C(F)(F)F)c2cc2c(=O)cc(C(=O)[O-])oc12.[Na+].[Na+]` are 0.57 and 3.725.
On the same counts, the results for `CCCc1c2nc(C(=O)[O-])cc(Sc3ccccc3)c2cc2c(=O)cc(C(=O)[O-])oc12.[Na+].[Na+]` are 0.88 and 7.54.
For the compound `CCCc1c2nc(C(=O)[O-])cc(/C=C/c3ccccc3)c2cc2c(=O)cc(C(=O)[O-])oc12.[Na+].[Na+]`, the “Log PR” value in data set [1] worked out at 0.8. Also, in the data set with Monkey, the Potency ratio turned out to be 6.326.
With `CCCc1c2nc(C(=O)[O-])cc(N3CCCC3)c2cc2c(=O)cc(C(=O)[O-])oc12.[Na+].[Na+]`, the pKa in data set [2] amounted to 8.75. The “Log PR” value in data set [1] was 0.14; in data set [3], -1.25. Also, in the data set with Monkey, the Potency ratio worked out at 0.017.
With `CCCc1c2nc(C(=O)[O-])cc(-n3cccc3)c2cc2c(=O)cc(C(=O)[O-])oc12.[Na+].[Na+]`, the “Log PR” value in data set [1] amounted to 0.43. The Potency ratio with Monkey is 2.686.
For `CCCc1c2nc(C(=O)[O-])cc(Oc3ccccc3)c2cc2c(=O)cc(C(=O)[O-])oc12.[Na+].[Na+]`, in that order: 0.51 and 3.244.
For the compound `CCCc1c2nc(C(=O)[O-])cc(Nc3ccccc3)c2cc2c(=O)cc(C(=O)[O-])oc12.[Na+].[Na+]`, the “Log PR” value in data set [4] was 0.39; in data set [1] it was -0.15. The Potency ratio in the data set with Monkey stood at 0.706. In data set [5], this compound displayed a pKa of 7.78.
As to `CCCc1c2nc(C(=O)[O-])cc(/C=N/NC(=O)c3ccccc3)c2cc2c(=O)cc(C(=O)[O-])oc12.[Na+].[Na+]`, the “Log PR” value in data set [1] is reported as -0.13. Besides, in the data set with Monkey, the Potency ratio amounted to 0.748.
For `CCCc1c2nc(C(=O)[O-])cc(C(F)(F)F)c2cc2c(=O)cc(C(=O)[O-])oc12.[Na+].[Na+]`, in that order: 0.4 and 2.53.
On the same counts, the results for `CCCc1c2nc(C(=O)[O-])cc(Br)c2cc2c(=O)cc(C(=O)[O-])oc12.[Na+].[Na+]` are 0.02 and 1.04.
On the same counts, the results for `CCCc1c2nc(C(=O)[O-])cc(Cl)c2cc2c(=O)cc(C(=O)[O-])oc12.[Na+].[Na+]` are 0.04 and 1.096.
For the compound `CCCc1c2nc(C(=O)[O-])cc(C(=O)[O-])c2cc2c(=O)cc(C(=O)[O-])oc12.[Na+].[Na+].[Na+]`, the “Log PR” value in data set [1] is given as -1.27. Besides, in the data set with Monkey, the Potency ratio worked out at 0.053.
As for `CCCc1c2nc(C(=O)[O-])cc(NCC)c2cc2c(=O)cc(C(=O)[O-])oc12.[Na+].[Na+]`, the figures for the “Log PR” value in data set [4] and in data set [1] were -0.89 and -2.15, respectively. Also, the Potency ratio with Monkey is recorded as 0.007. The compound further gave a pKa in data set [5] of 8.64.
`CCCc1c2nc(C(=O)[O-])cc(OCC)c2cc2c(=O)cc(C(=O)[O-])oc12.[Na+].[Na+]`: the “Log PR” value in data set [1] is recorded as -0.4. Also, the Potency ratio with Monkey is recorded as 0.4.
On to `CCCCCNc1cc(C(=O)[O-])nc2c(CCC)c3oc(C(=O)[O-])cc(=O)c3cc12.[Na+].[Na+]`, for which the results for the “Log PR” value in data set [4] and in data set [1] were 0.05 and -1.27, respectively. In the data set on Monkey, the Potency ratio was 0.053. Besides, the pKa in data set [5] came to 8.7.
As for `CCCc1c2nc(C(=O)[O-])cc(SCC)c2cc2c(=O)cc(C(=O)[O-])oc12.[Na+].[Na+]`, the “Log PR” value in data set [1] is reported as 0.35. For the same compound, in the data set on Monkey, the Potency ratio was determined as 2.249.
On the same counts, the results for `CCCc1c2nc(C(=O)[O-])cc(C)c2cc2c(=O)cc(C(=O)[O-])oc12.[Na+].[Na+]` are -0.42 and 0.379.
As to `CCCc1c2nc(C(=O)[O-])cc(N)c2cc2c(=O)cc(C(=O)[O-])oc12.[Na+].[Na+]`, in data set [2], the pKa worked out at 8.75. In addition, the “Log PR” value in data set [1] is 0.12; in data set [3], -1.25. Further, the Potency ratio with Monkey is reported as 0.057.
On the same counts, the results for `CCCc1c2nc(C(=O)[O-])cc(N(C)C)c2cc2c(=O)cc(C(=O)[O-])oc12.[Na+].[Na+]` are 8.26, -0.29, -1.2 and 0.063.
For the compound `CCCc1c2nc(C(=O)[O-])cc(C#N)c2cc2c(=O)cc(C(=O)[O-])oc12.[Na+].[Na+]`, the “Log PR” value in data set [1] was found to be 0.07. The Potency ratio in the data set on Monkey amounted to 1.161.
In the case of `CCCc1c2nc(C(=O)[O-])cc(NC)c2cc2c(=O)cc(C(=O)[O-])oc12.[Na+].[Na+]`, the values for the pKa in data set [2], in data set [6] and in data set [7] were 8.63, 1.62 and 0.5, respectively. Also, the figures for the “Log PR” value in data set [1] and in data set [3] were -0.66 and -1.91, respectively. Besides, the Potency ratio in the data set with Monkey came out at 0.012.
With `CCCc1c2nc(C(=O)[O-])cc(N(C)C(C)=O)c2cc2c(=O)cc(C(=O)[O-])oc12.[Na+].[Na+]`, in data set [1], the “Log PR” value is given as -2.05. Also, the Potency ratio in the data set with Monkey was determined as 0.009.

Source of the values: ChEMBL document CHEMBL1124264, “Predictive structure-activity relationships in a series of pyranoquinoline derivatives. A new primate model for the identification of antiallergic activity” (J Med Chem, 1988).
